# Source: PubChem BioAssay AID1963976 (Molecular Pharmacology Branch, DTP, NCI, 2024)
# Several values for one entry are separate records, joined by “and”; a condition that tells them apart may be missing. Equal entries are not always repeated.
# Test system: 435261-313-R-J1-PDC tumor spheroid viability
# Experiment: Anticancer human tumor 435261-313-R-J1-PDC patient-derived colon adenocarcinoma cell line growth inhibition [PI3K]
# Details: spheroids with HUVEC and MSC; for viability, T/C: stronger effect = lower value
# Outline: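 We assembled tumor spheroids that included a stromal compartment of HUVEC and MSCs, then exposed them to targeted agents alone and together with PI3K pathway inhibitors. Concentration series descended by half-log from clinically achievable Cmax levels. Viability served as the endpoint.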
# 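Note: spheroids exposed to compounds for 7 days.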
compound,measurement,setting,value
CC(Cn1ccc(-c2ccc(C#N)c(Cl)c2)n1)NC(=O)c1cc(C(C)O)[nH]n1 (centres undefined),"viability, T/C",compound 0.0316 µM,97.2% and 88.6% and 70.7%
same,"viability, T/C",compound 0.1 µM,108% and 96.9% and 109%
same,"viability, T/C",compound 0.316 µM,130% and 117% and 107%
same,"viability, T/C",compound 1 µM,79.9% and 113% and 70.2%
same,"viability, T/C",compound 3.16 µM,110% and 105% and 108%
same,"viability, T/C",compound 10 µM,120% and 102% and 99.3%
same,IC50,curve of compound,> 10000 nM
CC1(C)CCC(Nc2ncc(C(F)(F)F)c(-c3c[nH]c4c(P(C)(C)=O)c(C#N)ccc34)n2)CN1 (centres undefined) + Cc1nc(NC(=O)N2CCCC2C(N)=O)sc1-c1ccnc(C(C)(C)C(F)(F)F)c1,IC50,"curve of first compound, second compound 0.0316 µM",< 31.6 nM
same,IC50,"curve of first compound, second compound 0.1 µM",< 31.6 nM
same,IC50,"curve of first compound, second compound 0.316 µM",< 31.6 nM
same,IC50,"curve of first compound, second compound 1 µM",< 31.6 nM
same,IC50,"curve of first compound, second compound 3.16 µM",< 31.6 nM
same,IC50,"curve of first compound, second compound 10 µM",< 31.6 nM
same,"viability, T/C","second compound 0.0316 µM, first compound 0.0316 µM",47.1%
same,"viability, T/C","second compound 0.0316 µM, first compound 0.1 µM",45.9%
same,"viability, T/C","second compound 0.0316 µM, first compound 0.316 µM",39.3%
same,"viability, T/C","second compound 0.0316 µM, first compound 1 µM",38.1%
same,"viability, T/C","second compound 0.0316 µM, first compound 3.16 µM",33.7%
same,"viability, T/C","second compound 0.0316 µM, first compound 10 µM",0.64%
same,"viability, T/C","second compound 0.1 µM, first compound 0.0316 µM",48.5%
same,"viability, T/C","second compound 0.1 µM, first compound 0.1 µM",36.8%
same,"viability, T/C","second compound 0.1 µM, first compound 0.316 µM",41.9%
same,"viability, T/C","second compound 0.1 µM, first compound 1 µM",38.3%
same,"viability, T/C","second compound 0.1 µM, first compound 3.16 µM",32.4%
same,"viability, T/C","second compound 0.1 µM, first compound 10 µM",0.39%
same,"viability, T/C","second compound 0.316 µM, first compound 0.0316 µM",35.5%
same,"viability, T/C","second compound 0.316 µM, first compound 0.1 µM",33.5%
same,"viability, T/C","second compound 0.316 µM, first compound 0.316 µM",27.3%
same,"viability, T/C","second compound 0.316 µM, first compound 1 µM",29.3%
same,"viability, T/C","second compound 0.316 µM, first compound 3.16 µM",25.4%
same,"viability, T/C","second compound 0.316 µM, first compound 10 µM",0.33%
same,"viability, T/C","second compound 1 µM, first compound 0.0316 µM",23.3%
same,"viability, T/C","second compound 1 µM, first compound 0.1 µM",22.3%
same,"viability, T/C","second compound 1 µM, first compound 0.316 µM",26.7%
same,"viability, T/C","second compound 1 µM, first compound 1 µM",27.3%
same,"viability, T/C","second compound 1 µM, first compound 3.16 µM",14.8%
same,"viability, T/C","second compound 1 µM, first compound 10 µM",0.53%
same,"viability, T/C","second compound 3.16 µM, first compound 0.0316 µM",14.8%
same,"viability, T/C","second compound 3.16 µM, first compound 0.1 µM",17.2%
same,"viability, T/C","second compound 3.16 µM, first compound 0.316 µM",14.7%
same,"viability, T/C","second compound 3.16 µM, first compound 1 µM",14.2%
same,"viability, T/C","second compound 3.16 µM, first compound 3.16 µM",6.95%
same,"viability, T/C","second compound 3.16 µM, first compound 10 µM",0.84%
same,"viability, T/C","second compound 10 µM, first compound 0.0316 µM",7.65%
same,"viability, T/C","second compound 10 µM, first compound 0.1 µM",5.94%
same,"viability, T/C","second compound 10 µM, first compound 0.316 µM",5.07%
same,"viability, T/C","second compound 10 µM, first compound 1 µM",6.14%
same,"viability, T/C","second compound 10 µM, first compound 3.16 µM",2.6%
same,"viability, T/C","second compound 10 µM, first compound 10 µM",1.22%
